# Data reported in ChEMBL document CHEMBL1201862, “PubChem BioAssay data set” (2004).
# Active and inactive are the calls of the source.
# Experiments:
# [1] = P. falciparum 3D7-ScDHODH growth inhibitors, dose response, SYBR Green, dry powder samples (AID 1159570); format: functional, cell-based;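 also: parasite growth measured after 72 hours of compound exposure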
# [2] = HepG2 cell cytotoxicity, dose response, cytotoxicity control, plate reader, dry powder samples (AID 1159569); format: functional, cell-based;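 also: inhibitor potency with signal falling toward the positive control level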
# [3] = P. falciparum Dd2 growth inhibitors, dose response, SYBR Green, cherry-picked samples (AID 1159567); format: functional, cell-based
# [4] = P. falciparum Dd2 growth inhibitors, dose response, SYBR Green, dry powder samples (AID 1159566); format: functional, cell-based;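 also: potency for growth inhibition with lower SYBR green DNA signal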
# [5] = P. falciparum ATP4 D1247Y mutant growth inhibitors, dose response, NITD609-resistant line, SYBR Green, dry powder (AID 1159571); format: functional, cell-based;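 also: parasites synchronized at ring stage by sorbitol before testing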
# [6] = inhibitors of PGC1a acetylation in cells, dose response, cell-based, cherry-picked samples (AID 720514); format: functional;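 also: potency may reflect raised or lowered acetylation signal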
# [7] = HepG2 cell cytotoxicity, dose response, cytotoxicity control, cherry-picked samples (AID 1159577); format: functional, cell-based
# [8] = LGR2 antagonists, dose response, cell-based, HEK293, CRE-luciferase reporter, cherry pick, set 2 (AID 743343); format: functional;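 also: transfected cells were stimulated with diluted bursicon conditioned medium after compound addition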
# [9] = MC4R antagonists, dose response, counter-screen for LGR2 antagonist project, cell-based, plate reader, cherry pick (AID 743444); format: functional;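 also: transfected HEK 293 cells stimulated with alpha-MSH peptide; potency of inhibitors of the alpha-MSH evoked signal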
# [10] = HEK293 cell cytotoxicity, dose response, cytotoxicity control, plate reader, cherry-picked samples (AID 743446); format: functional, cell-based
# [11] = cytotoxicity in HPDE-C7 cells, cell-based, fluorescence, HTS (AID 430); format: functional; details: Homo sapiens
# [12] = cytotoxicity in KRAS-transformed pancreatic duct cells, primary screen, cell-based, fluorescence, HTS (AID 431); format: functional; details: Homo sapiens;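 also: cell line used: HPDE-C7K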
# [13] = target: T1, Calpain-2 catalytic subunit (Sus scrofa, UniProt P43367); assay: pig calpain II inhibitor potency, dose response, biochemical, fluorogenic peptide substrate (AID 1420); format: functional
# T1 sequence (P43367 whole entry): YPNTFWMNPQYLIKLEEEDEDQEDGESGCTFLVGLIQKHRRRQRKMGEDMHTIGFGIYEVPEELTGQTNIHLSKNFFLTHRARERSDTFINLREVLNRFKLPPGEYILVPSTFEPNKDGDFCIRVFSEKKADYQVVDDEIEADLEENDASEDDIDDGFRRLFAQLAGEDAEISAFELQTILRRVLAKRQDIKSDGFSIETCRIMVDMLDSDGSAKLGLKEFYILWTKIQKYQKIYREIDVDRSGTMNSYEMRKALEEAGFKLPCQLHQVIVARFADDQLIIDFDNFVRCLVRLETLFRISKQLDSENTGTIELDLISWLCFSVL
# [14] = target: T2, Corticotropin-releasing factor receptor 2/Corticotropin-releasing factor-binding protein (Homo sapiens, UniProt P24387+Q13324); assay: Dose Response confirmation of uHTS hits for small molecule antagonists of the CRF-binding protein and CRF-R2 receptor complex.; format: functional; details: read-out: IC50_Mean
# T2 sequence (Q13324 whole entry): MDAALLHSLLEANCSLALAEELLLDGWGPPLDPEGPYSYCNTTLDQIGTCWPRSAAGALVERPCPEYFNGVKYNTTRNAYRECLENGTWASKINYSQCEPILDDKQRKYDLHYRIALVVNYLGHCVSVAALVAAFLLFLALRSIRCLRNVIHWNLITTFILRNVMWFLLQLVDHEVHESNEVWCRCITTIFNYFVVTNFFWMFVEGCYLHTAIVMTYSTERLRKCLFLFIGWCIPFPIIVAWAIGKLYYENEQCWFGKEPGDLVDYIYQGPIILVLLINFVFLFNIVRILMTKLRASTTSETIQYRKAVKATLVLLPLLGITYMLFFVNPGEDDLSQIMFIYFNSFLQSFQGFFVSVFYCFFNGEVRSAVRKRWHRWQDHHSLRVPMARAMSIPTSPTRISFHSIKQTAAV
# T2 sequence (P24387 whole entry): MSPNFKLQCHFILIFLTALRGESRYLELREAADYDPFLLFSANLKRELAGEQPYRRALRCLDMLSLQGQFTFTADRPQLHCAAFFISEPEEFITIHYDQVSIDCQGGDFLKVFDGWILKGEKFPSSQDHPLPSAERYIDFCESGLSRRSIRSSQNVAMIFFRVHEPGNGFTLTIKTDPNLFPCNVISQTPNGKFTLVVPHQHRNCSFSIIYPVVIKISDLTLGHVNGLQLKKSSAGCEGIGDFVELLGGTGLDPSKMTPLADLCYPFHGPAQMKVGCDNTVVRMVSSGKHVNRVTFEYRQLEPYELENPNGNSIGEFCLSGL
# [15] = target: T2, Corticotropin-releasing factor receptor 2/Corticotropin-releasing factor-binding protein; assay: activators of CRF receptor 2 with binding protein – uHTS hits, confirmation (AID 602473); format: functional; details: read-out: EC50_Mean
# Genome polyprotein = Genome polyprotein (dengue virus type 2, UniProt P29990); assay: Dengue-2 NS5 methyltransferase inhibitors, primary screen, biochemical, confirmation dose response (AID 588689); format: functional
# Sequence of Genome polyprotein (P29990 2492-3391 limits assumed): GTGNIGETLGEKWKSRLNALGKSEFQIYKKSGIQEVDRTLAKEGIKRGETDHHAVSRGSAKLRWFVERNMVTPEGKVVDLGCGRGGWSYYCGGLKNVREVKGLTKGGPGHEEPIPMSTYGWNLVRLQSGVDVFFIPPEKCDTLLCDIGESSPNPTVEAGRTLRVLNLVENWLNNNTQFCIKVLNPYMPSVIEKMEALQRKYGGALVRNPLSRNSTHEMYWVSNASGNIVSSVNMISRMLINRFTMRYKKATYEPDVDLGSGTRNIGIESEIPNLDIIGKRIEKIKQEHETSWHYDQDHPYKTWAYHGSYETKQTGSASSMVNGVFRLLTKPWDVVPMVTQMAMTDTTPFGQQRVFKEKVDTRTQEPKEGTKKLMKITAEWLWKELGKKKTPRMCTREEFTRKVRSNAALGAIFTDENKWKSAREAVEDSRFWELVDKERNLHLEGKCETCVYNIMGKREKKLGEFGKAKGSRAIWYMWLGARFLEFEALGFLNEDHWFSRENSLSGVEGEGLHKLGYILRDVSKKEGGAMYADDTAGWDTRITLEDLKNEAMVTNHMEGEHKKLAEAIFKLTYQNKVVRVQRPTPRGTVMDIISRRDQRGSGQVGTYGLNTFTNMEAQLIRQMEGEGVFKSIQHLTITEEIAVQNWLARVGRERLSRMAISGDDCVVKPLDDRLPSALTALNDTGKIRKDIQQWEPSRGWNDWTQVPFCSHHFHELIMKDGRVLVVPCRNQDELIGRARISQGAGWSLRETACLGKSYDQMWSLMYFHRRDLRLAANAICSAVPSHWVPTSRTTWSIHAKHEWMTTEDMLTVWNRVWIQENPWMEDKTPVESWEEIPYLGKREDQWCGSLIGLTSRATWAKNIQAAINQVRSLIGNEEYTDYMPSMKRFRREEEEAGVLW
# [16] = target: T3, 1-phosphatidylinositol 4,5-bisphosphate phosphodiesterase gamma-1 (Homo sapiens, UniProt P19174); assay: Counterscreen for inhibitors of phospholipase C isozymes (PLC-B3): Fluorescence-based biochemical high throughput dose response assay to identify inhibitors of phospholipase C isozymes (PLC-gamma1).
# T3 sequence (P19174 whole entry): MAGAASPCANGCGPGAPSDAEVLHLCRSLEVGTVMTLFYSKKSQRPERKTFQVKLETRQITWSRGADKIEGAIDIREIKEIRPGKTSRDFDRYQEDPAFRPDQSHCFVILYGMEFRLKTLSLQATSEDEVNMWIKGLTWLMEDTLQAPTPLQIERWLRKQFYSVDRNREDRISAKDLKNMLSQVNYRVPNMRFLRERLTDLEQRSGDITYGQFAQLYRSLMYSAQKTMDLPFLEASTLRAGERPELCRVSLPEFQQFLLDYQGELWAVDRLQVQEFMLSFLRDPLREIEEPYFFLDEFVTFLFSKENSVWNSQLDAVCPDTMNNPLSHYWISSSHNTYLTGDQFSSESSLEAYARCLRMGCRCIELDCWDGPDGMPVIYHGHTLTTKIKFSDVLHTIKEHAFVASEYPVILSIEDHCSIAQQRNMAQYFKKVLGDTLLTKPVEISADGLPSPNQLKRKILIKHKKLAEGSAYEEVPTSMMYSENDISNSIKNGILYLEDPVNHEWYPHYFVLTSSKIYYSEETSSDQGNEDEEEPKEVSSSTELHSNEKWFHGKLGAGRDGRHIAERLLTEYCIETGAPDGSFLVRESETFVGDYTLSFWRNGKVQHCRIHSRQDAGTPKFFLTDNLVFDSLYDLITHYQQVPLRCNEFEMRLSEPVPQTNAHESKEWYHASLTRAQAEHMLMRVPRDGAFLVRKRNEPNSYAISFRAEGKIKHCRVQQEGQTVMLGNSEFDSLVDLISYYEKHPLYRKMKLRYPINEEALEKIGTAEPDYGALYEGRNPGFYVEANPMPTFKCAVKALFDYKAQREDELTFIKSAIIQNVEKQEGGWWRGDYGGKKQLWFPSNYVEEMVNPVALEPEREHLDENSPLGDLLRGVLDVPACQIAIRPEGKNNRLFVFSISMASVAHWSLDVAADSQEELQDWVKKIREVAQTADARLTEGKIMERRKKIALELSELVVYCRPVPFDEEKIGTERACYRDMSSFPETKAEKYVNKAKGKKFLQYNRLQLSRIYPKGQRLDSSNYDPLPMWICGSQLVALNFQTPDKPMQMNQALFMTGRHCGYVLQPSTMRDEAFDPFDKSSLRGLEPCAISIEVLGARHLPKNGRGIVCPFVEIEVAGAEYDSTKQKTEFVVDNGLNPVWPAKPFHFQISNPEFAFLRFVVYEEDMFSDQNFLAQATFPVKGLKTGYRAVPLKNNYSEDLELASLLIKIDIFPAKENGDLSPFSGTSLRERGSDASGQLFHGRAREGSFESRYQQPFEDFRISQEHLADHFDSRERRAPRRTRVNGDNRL
# [17] = target: T4, 1-phosphatidylinositol 4,5-bisphosphate phosphodiesterase beta-3 (Homo sapiens, UniProt Q01970); assay: Fluorescence-based biochemical high throughput dose response assay to identify inhibitors of phospholipase C isozymes (PLC-B3).
# T4 sequence (Q01970 whole entry): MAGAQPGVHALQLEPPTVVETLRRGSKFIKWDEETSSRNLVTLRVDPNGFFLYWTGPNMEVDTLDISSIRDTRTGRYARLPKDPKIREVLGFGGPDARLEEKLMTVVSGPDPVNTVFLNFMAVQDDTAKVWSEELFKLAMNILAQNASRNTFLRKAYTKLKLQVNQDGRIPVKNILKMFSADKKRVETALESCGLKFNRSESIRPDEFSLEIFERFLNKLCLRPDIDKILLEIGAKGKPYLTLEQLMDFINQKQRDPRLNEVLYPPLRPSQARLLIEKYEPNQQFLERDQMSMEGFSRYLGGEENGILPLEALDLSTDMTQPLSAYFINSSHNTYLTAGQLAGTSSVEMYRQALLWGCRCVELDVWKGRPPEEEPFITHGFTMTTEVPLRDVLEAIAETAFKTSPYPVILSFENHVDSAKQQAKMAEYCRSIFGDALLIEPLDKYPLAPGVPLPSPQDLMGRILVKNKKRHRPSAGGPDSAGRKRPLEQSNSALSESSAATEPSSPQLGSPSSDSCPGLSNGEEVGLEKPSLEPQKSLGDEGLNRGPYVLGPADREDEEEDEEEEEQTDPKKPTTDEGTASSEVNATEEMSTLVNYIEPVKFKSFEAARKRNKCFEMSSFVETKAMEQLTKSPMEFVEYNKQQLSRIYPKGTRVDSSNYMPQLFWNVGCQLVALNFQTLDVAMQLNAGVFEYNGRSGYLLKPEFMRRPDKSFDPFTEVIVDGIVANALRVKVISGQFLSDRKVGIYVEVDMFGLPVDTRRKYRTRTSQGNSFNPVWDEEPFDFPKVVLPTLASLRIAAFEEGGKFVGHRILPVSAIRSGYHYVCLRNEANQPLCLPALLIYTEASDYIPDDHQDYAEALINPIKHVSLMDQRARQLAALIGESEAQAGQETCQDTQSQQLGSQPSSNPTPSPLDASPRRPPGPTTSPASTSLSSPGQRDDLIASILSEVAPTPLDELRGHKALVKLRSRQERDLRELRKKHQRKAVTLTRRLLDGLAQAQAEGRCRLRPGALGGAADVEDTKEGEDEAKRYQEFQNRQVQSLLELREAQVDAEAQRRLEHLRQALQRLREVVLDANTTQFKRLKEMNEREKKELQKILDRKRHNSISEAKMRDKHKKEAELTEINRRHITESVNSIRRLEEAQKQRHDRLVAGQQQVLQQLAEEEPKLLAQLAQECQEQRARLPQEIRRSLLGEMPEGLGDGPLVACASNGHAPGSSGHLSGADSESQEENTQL
# [18] = target: Voltage-gated inwardly rectifying potassium channel KCNH2 (Homo sapiens, UniProt Q12809); assay: hERG protection from proarrhythmic block, potency, dose response, cell-based, thallium flux (AID 2121); format: ADME
# Sequence of Voltage-gated inwardly rectifying potassium channel KCNH2 (Q12809 whole entry): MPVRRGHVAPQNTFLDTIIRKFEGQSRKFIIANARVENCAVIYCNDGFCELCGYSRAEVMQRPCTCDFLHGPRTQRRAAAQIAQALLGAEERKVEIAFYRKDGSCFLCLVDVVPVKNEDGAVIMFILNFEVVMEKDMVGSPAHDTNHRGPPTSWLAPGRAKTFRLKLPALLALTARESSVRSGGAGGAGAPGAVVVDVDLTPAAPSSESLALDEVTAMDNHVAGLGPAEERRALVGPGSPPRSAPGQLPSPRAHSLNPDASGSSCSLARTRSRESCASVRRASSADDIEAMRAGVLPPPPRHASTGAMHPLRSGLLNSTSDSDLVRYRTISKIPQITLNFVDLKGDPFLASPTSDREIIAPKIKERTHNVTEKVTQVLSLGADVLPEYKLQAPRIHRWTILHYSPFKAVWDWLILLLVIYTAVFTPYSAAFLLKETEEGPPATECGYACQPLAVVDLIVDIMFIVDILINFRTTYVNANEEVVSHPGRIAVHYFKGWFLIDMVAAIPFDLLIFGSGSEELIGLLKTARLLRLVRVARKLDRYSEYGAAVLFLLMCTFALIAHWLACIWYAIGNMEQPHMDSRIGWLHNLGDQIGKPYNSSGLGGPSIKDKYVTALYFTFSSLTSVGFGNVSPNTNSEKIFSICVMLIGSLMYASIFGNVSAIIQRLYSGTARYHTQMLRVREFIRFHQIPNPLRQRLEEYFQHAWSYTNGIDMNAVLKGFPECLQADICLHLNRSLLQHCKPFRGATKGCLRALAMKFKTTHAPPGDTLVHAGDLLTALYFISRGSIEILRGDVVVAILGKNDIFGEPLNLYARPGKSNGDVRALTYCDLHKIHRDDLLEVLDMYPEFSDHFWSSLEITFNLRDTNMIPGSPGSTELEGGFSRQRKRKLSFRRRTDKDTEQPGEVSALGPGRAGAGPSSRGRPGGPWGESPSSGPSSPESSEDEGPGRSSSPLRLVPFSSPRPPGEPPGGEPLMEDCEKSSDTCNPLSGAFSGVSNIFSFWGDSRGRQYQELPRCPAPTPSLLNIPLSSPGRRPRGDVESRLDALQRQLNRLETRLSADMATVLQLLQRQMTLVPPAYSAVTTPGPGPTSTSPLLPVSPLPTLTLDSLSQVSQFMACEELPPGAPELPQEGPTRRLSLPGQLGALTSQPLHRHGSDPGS
# Protein Tat = target: T5, Protein Tat (Human immunodeficiency virus type 1 group M subtype B (isolate HXB2)(HIV-1), UniProt P04608); format: functional;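 also: tat binding to TAR RNA read out by fluorescence polarization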
# T5 sequence (P04608 whole entry): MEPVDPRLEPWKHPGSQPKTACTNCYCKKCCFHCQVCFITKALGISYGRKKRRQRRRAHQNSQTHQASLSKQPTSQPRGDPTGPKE
# Large T antigen = Large T antigen (Simian virus 40, UniProt P03070); format: functional, Betapolyomavirus macacae;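 also: Confirmatory-stage PubChem screen for compounds that inhibit SV40 T antigen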
# Sequence of Large T antigen (P03070 whole entry): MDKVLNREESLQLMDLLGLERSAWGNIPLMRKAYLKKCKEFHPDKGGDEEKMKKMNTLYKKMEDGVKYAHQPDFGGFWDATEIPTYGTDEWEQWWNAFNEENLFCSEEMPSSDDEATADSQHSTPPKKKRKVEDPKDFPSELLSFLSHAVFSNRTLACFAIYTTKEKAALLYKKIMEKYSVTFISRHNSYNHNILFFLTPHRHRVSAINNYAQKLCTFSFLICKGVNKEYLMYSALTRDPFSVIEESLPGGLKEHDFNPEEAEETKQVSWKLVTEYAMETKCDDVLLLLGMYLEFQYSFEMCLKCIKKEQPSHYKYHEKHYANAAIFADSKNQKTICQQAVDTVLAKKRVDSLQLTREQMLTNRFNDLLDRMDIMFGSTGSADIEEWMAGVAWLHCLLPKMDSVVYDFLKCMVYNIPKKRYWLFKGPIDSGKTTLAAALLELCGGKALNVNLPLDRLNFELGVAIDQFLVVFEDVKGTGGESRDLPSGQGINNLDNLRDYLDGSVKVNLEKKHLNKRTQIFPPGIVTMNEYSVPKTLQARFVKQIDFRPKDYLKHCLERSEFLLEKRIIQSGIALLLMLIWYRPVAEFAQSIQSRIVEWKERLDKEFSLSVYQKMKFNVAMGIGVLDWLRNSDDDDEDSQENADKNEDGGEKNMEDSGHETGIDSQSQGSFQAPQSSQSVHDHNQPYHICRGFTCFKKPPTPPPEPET
# [19] = THP-1 cell cytotoxicity, dose response, cytotoxicity control for Vif-APOBEC3G degradation inhibitor project, THP-1 cells (AID 1117359); format: functional; details: Human immunodeficiency virus 1, THP-1
smiles,measurement,setting,value
COc1ccc2c3c(n(C)c2c1)[C@H](CO)N(C(=O)Nc1ccc(F)cc1)CC31CN(C(=O)c2ccc3c(c2)OCO3)C1,AC50,[1],1.89 µM (active)
same,AC50,[2],> 100 µM (inactive)
same,AC50,[3],2.68 µM (active)
same,AC50,[4],0.683 µM (active)
same,AC50,[5],1.2 µM (active)
COc1cc(CN2C[C@@H]3N[C@H](C2)[C@@H]3c2ccc(/C=C/c3ccccc3)cc2)cc(OC)c1,AC50,[6],13 µM (active)
same,AC50,[3],2.38 µM (active)
same,AC50,[7],6.51 µM (active)
Cc1cc(C(=O)COC(=O)c2cccn2C)c(C)n1Cc1ccco1,AC50,[8],5.16 µM (active)
same,AC50,[9],9.65 µM (active)
same,AC50,[10],> 52 µM (inactive)
Brc1ccc(CSc2nnc(Cc3c[nH]c4ccccc34)o2)cc1,EC50,[11],14.2 µM (active)
same,EC50,[12],13.4 µM (active)
same,IC50,[13],5.75 µM (not active)
same,IC50,[14],> 47.1 µM (inactive)
same,EC50,[15],> 53 µM (inactive)
CCOc1cc(Br)cc(C(c2c(C(=O)O)[nH]c3ccccc23)c2c(C(=O)O)[nH]c3ccccc23)c1O,IC50,Genome polyprotein,18.7 µM (active)
same,IC50,[16],18.6 µM (inactive)
same,IC50,[17],> 122 µM (inactive)
COc1ccc(NC(=O)c2cc(-c3ccc(OC)c(OC)c3)on2)cc1OC,IC50,[16],> 123 µM (inactive)
same,IC50,[17],> 123 µM (inactive)
CO[C@@H]1CN(C)C(=O)c2ccc(NC(=O)c3nc4ccccc4s3)cc2OC[C@@H](C)N(Cc2ccncc2)C[C@H]1C,AC50,[1],1.39 µM (active)
same,AC50,[2],26.7 µM (active)
same,AC50,[3],2.62 µM (active)
same,AC50,[4],1.33 µM (active)
same,AC50,[7],> 39 µM (inactive)
same,AC50,[5],1.34 µM (active)
CC(=O)c1c(N)nc(-c2ccccc2)nc1S,EC50,[18],11 µM (active)
COc1cccc(C(C#N)N2CCCCC2)c1O (stereo not drawn),IC50,Protein Tat,> 100 µM (active)
C=CCc1cccc(CNc2nc3ccccc3n2CC)c1O,EC50,[11],> 20 µM (not active)
same,EC50,[12],> 20 µM (not active)
OC(COCc1ccc(Cl)cc1)CN1CCN(CC(O)COCc2ccc(Cl)cc2)CC1 (stereo not drawn),EC50,[11],> 20 µM (not active)
same,EC50,[12],> 20 µM (not active)
COC(=O)C[C@@H]1CC[C@@H]2[C@H](COc3ccc(NC(=O)c4cccc(F)c4)cc3C(=O)N2C)O1,IC50,[16],> 122 µM (inactive)
same,IC50,[17],> 122 µM (inactive)
CCOC(=O)N1CCN(c2ccc(O)cc2)CC1,IC50,Large T antigen,10.2 µM (active)
same,IC50,Protein Tat,14 µM (inconclusive)
same,CC50,[19],> 40 µM (active)
